Here are results for 7 molecules from patent US20080152640A1, “Means and Methods For Treating a Disease Which is Associated With an Excess Transport of Hyaluronan Across a Lipid Bilayer” (priority 2003, published 2008).

The test system of data set [1] is bovine articular cartilage. Kind of data set: Proteoglycan loss from interleukin-induced osteoarthritic bovine cartilage organ culture. The data set is classed as cell-based. To be noted: different concentrations.
From the text: We analyzed the efficacy of several inhibitors in organ cultures of bovine articular cartilage that was induced to become osteoarthritic by interleukin.
Data set [2] relates to human fibroblasts. The data set is described as follows: Export of endogenously synthesized [3H]hyaluronan from human fibroblasts. It is filed as cell-based. The settings on record: for [3H]hyaluronan: 50 μg/ml in pinocytotic media, 40 hours. On the procedure:
(§1) This experiment was performed to investigate, whether an excess of hyaluronan oligosaccharides introduced into the cytosol interfere with the export of hyaluronan synthesized by the human fibroblasts. Fibroblasts (4×10^4 cells) were seeded into culture flasks of 25 cm^2 growth areas and incubated for 24 hours. High molecular weight hyaluronan, hyaluronan oligosaccharides, a mixture of N-acetyl-glucosamine and glucuronic acid or control buffer were introduced into the cytosol by the method of osmotic lysis of pinocytotic vesicles. The concentrations of the added components in the pinocytotic media were 50 μg/ml. The cells were incubated for 40 hours in the presence of [3H]GlcN (8 μCi/ml, specific activity 29 Ci/mmole) and the amount of radioactive hyaluronan released into the culture medium was determined as described.
as §1, with “Ci/ml,” for “μCi/ml,”, “μCi/mmole)” for “Ci/mmole)”
This experiment was performed to investigate, whether both processes could be uncoupled. Fibroblasts were labelled with [3H]GlcN and hyaluronan oligosaccharides, high molecular weight hyaluronan or an equal mixture of GlcNac and GlcA were introduced into the cytosol. [3H]hyaluronan secreted into the medium was isolated by ion exchange chromatography and the radioactivity was determined.

Data set [3] has as its system human fibroblasts. The data set is described as follows: Hyaluronan production of human fibroblasts (ELISA of culture medium). The data set is classed as cell-based. The settings on record: for IC50: Fibroblast, read-out: HA production (IC50). On the technique in general: An ELISA detects its analyte on a solid surface through an enzyme-linked reagent.
The test system of another data set is hyaluronan synthase. To be noted: for IC50: read-out: HA synthase activity (IC50), membranes of human fibroblasts.
Another data set has as its system hyaluronan transport. The data set is described as follows: Inhibition of hyaluronan transport (export) from human fibroblasts, discussion of Example 9. To be noted: for inhibition of hyaluronan transport (words): human fibroblasts.
The subject of another data set is human skin fibroblasts. Kind of data set: Proliferation of human skin fibroblasts (cell counting). The data set is classed as cell-based. To be noted: Homo sapiens, Skin fibroblast, read-out: Proliferation (IC50). On the procedure: Human fibroblasts were grown in […] in Dulbecco's modified Eagles medium supplemented with streptomycin/penicillin (100 units of each/ml), kanamycin (100 units/ml) and 10% foetal calf serum. Cell proliferation was determined by cell counting after trypsinisation three days after seeding.

The next data set has as its target MRP2 (Homo sapiens, UniProt Q92887). The settings on record: cited from earlier work.
A further data set has as its target MRP5 (Homo sapiens, UniProt O15440). To be noted: cited from earlier work.
Another data set addresses T1, MRP7 (Homo sapiens, UniProt Q5T3U5).
T1 sequence (Q5T3U5 1-1492): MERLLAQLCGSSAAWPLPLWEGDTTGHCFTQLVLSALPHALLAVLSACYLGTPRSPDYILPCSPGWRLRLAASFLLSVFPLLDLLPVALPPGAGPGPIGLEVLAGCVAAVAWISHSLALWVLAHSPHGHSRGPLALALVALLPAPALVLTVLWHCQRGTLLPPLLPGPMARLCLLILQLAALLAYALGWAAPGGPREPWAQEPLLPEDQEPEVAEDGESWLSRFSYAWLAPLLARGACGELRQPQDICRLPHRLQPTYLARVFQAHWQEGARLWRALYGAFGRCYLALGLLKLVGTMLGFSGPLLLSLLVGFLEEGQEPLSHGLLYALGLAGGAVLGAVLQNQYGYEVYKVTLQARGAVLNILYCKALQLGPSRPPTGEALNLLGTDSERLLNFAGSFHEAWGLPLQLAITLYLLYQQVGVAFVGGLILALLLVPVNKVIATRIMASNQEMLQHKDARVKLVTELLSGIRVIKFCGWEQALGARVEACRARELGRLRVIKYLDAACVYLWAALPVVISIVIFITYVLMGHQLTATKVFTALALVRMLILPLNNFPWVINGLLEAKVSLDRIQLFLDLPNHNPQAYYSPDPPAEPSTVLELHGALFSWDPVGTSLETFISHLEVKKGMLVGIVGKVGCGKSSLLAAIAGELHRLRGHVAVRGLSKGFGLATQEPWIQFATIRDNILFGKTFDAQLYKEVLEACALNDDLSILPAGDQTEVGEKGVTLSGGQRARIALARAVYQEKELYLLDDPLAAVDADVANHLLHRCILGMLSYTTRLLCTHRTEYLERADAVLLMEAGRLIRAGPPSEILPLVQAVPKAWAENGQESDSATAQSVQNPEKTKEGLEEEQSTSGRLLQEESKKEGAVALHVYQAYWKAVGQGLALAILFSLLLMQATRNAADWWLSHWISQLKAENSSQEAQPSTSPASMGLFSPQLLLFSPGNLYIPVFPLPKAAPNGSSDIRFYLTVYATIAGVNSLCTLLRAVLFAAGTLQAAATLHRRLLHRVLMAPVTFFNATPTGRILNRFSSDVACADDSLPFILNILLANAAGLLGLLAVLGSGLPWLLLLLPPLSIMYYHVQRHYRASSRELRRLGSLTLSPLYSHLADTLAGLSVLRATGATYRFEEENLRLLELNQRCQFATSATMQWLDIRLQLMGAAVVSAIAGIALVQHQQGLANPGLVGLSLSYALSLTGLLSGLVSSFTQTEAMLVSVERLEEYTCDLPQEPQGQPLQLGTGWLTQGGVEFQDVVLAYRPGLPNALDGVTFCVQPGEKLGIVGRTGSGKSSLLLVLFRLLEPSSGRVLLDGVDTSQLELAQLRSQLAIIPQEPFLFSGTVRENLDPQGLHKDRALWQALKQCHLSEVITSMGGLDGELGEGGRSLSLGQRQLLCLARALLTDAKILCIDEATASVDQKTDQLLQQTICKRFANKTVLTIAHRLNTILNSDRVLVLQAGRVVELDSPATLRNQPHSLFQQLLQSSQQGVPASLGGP
To be noted: cited from earlier work.

The target of another data set is T2, MRP4 (Homo sapiens, UniProt O15439).
T2 sequence (O15439 1-1325): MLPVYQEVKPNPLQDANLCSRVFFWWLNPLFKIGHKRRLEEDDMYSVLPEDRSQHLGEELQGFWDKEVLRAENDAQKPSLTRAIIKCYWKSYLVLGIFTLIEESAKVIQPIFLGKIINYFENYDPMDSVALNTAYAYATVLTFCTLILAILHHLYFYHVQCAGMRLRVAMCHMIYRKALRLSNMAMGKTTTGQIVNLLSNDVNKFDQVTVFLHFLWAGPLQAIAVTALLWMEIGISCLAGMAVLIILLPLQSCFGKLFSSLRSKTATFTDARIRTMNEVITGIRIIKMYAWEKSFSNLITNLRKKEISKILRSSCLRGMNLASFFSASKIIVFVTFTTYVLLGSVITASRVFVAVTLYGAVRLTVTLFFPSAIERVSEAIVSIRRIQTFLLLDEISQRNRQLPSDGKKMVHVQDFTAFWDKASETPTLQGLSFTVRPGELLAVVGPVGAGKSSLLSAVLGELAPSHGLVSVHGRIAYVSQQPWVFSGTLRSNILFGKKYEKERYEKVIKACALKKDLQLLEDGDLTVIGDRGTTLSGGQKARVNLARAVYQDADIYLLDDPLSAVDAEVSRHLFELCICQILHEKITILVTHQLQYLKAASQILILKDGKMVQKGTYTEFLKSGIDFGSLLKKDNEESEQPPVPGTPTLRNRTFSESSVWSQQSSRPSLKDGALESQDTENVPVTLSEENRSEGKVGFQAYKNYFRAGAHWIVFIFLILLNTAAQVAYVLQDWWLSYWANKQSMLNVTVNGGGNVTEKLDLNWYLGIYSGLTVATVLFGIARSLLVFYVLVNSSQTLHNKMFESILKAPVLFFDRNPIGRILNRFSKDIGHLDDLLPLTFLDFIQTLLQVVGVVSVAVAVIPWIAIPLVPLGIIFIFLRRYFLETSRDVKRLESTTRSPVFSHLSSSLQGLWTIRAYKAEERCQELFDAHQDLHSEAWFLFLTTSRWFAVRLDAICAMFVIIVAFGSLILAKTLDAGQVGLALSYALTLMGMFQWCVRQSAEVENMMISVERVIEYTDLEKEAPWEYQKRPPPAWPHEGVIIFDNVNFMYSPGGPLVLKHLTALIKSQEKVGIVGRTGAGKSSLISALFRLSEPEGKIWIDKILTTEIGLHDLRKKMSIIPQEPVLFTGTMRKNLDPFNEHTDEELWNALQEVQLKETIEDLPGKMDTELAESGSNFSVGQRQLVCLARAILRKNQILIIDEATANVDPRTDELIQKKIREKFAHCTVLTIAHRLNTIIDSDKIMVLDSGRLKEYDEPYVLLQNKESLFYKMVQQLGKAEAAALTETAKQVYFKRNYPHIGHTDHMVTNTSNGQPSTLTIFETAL
The settings on record: read-out: IC50, MRP4 mediated export of methotrexate; substrate methotrexate; cited from earlier work.

The mark [4] stands for this setting: human fibroblasts, culture medium.

Read-outs that look alike come from different tables or passages of the source.

Sequence of MRP5 (O15440 whole entry): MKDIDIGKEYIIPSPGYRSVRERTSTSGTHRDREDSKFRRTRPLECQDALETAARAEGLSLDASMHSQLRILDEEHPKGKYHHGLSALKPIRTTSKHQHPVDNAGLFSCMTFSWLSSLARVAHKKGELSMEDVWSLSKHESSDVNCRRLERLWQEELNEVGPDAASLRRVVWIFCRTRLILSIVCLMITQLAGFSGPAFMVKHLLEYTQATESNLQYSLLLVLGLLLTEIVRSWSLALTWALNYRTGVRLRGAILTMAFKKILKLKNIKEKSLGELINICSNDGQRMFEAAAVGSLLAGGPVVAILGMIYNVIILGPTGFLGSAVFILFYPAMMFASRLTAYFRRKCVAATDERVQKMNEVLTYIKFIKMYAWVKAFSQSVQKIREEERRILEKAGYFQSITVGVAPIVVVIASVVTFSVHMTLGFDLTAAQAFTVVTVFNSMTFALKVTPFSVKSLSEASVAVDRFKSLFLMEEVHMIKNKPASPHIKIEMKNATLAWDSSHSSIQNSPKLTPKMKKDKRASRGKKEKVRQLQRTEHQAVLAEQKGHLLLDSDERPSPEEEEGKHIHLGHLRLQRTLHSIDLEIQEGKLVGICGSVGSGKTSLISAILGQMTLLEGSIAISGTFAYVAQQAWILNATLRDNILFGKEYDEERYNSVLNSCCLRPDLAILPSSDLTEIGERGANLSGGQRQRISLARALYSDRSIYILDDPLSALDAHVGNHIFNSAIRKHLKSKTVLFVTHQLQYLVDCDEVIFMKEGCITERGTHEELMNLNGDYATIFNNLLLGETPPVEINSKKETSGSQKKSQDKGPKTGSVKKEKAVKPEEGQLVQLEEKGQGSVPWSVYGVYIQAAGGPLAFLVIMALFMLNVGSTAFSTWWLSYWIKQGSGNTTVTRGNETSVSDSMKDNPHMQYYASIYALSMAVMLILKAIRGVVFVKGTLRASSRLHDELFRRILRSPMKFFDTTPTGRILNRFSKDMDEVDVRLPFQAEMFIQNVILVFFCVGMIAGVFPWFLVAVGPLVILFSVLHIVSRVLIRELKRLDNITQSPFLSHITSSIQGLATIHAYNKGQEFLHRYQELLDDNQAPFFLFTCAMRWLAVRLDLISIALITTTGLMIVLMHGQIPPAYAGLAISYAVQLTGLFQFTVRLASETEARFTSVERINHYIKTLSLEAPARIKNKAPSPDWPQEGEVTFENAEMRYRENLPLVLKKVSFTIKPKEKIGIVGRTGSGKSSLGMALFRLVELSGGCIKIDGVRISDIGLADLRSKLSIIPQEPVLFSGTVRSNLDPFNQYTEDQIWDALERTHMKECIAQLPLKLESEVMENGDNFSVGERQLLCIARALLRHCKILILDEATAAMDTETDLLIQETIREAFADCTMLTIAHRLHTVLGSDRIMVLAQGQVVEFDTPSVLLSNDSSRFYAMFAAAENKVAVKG
Sequence of MRP2 (Q92887 whole entry): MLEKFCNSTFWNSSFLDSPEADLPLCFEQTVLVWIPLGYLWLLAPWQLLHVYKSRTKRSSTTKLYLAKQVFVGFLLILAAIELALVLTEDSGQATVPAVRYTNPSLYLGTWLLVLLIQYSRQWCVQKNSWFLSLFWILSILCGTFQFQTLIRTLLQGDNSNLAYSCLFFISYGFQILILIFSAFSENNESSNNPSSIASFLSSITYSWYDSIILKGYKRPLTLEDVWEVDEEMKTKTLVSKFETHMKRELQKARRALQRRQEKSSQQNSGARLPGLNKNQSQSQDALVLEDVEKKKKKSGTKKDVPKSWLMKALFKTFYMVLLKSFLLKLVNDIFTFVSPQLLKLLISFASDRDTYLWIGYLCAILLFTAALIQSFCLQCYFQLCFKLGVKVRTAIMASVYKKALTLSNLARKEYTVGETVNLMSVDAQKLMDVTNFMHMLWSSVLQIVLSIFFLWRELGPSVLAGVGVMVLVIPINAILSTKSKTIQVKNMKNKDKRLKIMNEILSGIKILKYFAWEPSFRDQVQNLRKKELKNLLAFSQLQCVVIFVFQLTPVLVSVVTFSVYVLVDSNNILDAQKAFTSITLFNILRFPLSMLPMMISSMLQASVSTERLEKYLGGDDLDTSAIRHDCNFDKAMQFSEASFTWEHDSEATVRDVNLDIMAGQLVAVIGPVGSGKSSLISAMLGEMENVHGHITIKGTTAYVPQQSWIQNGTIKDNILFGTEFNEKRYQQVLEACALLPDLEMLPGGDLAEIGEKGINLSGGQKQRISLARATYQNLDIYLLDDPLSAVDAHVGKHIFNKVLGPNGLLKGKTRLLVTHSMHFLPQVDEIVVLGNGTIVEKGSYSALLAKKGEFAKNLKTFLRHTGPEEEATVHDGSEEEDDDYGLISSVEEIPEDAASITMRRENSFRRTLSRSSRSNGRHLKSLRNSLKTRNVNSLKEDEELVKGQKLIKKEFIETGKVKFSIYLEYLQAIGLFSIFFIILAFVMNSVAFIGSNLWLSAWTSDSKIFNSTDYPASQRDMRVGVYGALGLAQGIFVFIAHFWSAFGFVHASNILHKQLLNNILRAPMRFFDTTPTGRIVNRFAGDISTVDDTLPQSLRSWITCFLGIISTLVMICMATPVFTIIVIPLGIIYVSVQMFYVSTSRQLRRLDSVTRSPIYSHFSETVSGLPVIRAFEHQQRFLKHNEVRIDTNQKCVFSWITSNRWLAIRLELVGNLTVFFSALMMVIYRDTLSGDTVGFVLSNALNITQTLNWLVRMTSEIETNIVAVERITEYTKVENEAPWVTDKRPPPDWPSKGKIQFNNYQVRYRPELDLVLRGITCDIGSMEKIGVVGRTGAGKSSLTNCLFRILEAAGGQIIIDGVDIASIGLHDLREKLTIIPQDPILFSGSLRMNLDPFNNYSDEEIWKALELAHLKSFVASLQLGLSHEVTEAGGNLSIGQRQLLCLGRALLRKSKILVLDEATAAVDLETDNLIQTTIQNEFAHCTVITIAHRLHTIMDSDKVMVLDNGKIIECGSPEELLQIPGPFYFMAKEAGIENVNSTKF
Method for hyaluronan transport: Cells from five culture flasks (180 cm2 growth area) were washed with cold phosphate buffered saline (PBS), harvested with the aid of a rubber policeman, sedimented at 1500 g for 5 min and suspended in 30 ml of ice-cold PBS. The cells were transferred into a Parr-cell disruption bomb, exposed to a nitrogen pressure of 900 psi for 15 min and disrupted by nitrogen cavitation [18] and the particulate fraction was obtained by centrifugation at 40000 g for 20 min. […] Hyaluronan synthesis was stopped by adding a solution of 10% sodium dodecylsuifate (SDS) to a final concentration of 1%. The mixtures were applied to descending paper chromatography that was developed with ethanol/aq. 1 M ammonium acetate pH 5.5 (13:7) as solvent. After 18 h the radioactivity of [14C]hyaluronan at the origin was determined.
Trypsinised fibroblasts were suspended in Dulbecco's medium at 10^5 cells/ml and 100 μl aliquots were transferred to a 96 well microtiter plate. The first row received 200 μl of the suspension and 20 μl of the multidrug resistance inhibitors dissolved in DMSO at concentrations of 4 mM. A serial dilution to the inhibitors was established by transfer of 100 μl aliquots from the first row to the following rows. All experiments were performed in duplicates. […] The cells were incubated for 2 days at 37° C. and aliquots (5 and 20 μl) of the culture medium were used for measurement of the hyaluronan concentration in the cell culture medium by an ELISA [19]. […] The mixtures were transferred to the hyaluronan-coated test plate and incubated for 1 hour at 37° C. The microtiter plate was washed three times with buffer A and incubated with 100 μl/well of a solution of streptavidin-horseraddish-peroxidase (Amersham) at a dilution of 1:100 in phosphate buffered saline, 0.1% Tween-20 for 30 min at room temperature. The plate was washed five times with buffer A and the colour was developed by incubation with a 100 μl/well of a solution of 5 mg o-phenylenediamine and 5 μl 30% H2O2 in 10 ml of 0.1 M citrate-phosphate buffer pH 5.3 for 25 min at room temperature. The adsorption was read at 490 nm. The concentrations in the samples were calculated from a logarithmic regression curve of the hyaluronan standard solutions.
Three parameters were measured: 1. The amount of hyaluronan produced during growth into the culture supernatant. 2. The hyaluronan synthase activity in particulate membrane fractions to eliminate the possibility that inhibition of hyaluronan production in cell culture could be caused indirectly by cellular mediators. 3. The effect on cell proliferation, because hyaluronan synthesis is also required for detachment during mitosis and growth of the human HT1080 cell line [14].

With `CC(C)COCC(CN(Cc1ccccc1)c1ccccc1)N1CCCC1` (centres unmarked) [bepidril], the “protection from proteoglycan loss, safranin O histology” value in data set [1] is reported as “only inhibitory at high concentrations”.

As for Hyaluronan, the [3H]hyaluronan in the data set with human fibroblasts [2] (Example 10 Table 2, buffer) came to 10700 cpm; in the data set with human fibroblasts [2] (Example 11 Table 1, buffer 9436), 10723 cpm. The “export of endogenous labelled hyaluronan” value in the data set on human fibroblasts [2] (introduced into the cytosol) was “not”.

Turning to `OCCN(CCO)c1nc(N2CCCCC2)c2nc(N(CCO)CCO)nc(N3CCCCC3)c2n1` [Dipyramidole], the IC50 was 15 µM in the data set on human fibroblasts [3] (Homo sapiens) and approximately 1 µM in the data set on hyaluronan synthase. Besides, the “inhibition of hyaluronan transport (words)” value (from here on “inhibition … (words)”) with hyaluronan transport was “effective inhibitor”.

In the case of `CN(C)C(=O)CCSC(SCCC(=O)O)c1cccc(/C=C/c2ccc3ccc(Cl)cc3n2)c1` (centres unmarked) [MK-571], the IC50 in the data set with human skin fibroblasts is 150 µM; in the data set with human fibroblasts [3] (setting [4]) it was more than 400 µM; in the data set with hyaluronan synthase it was more than 100 µM; at MRP2, 469 µM. Further, the “concentrations at which hyaluronan secretion/production is inhibited” value in the data set on human fibroblasts [3] (human fibroblasts, inhibition only partial) is “above 100 μM”. In addition, the “hyaluronan transport / synthase activity in membranes” value in the data set with hyaluronan synthase (membranes from human fibroblasts) was “less efficient”. On MRP5 (at concentrations up to 50 μM), the “effect on MRP5 mediated transport of cGMP” value was “no inhibitory effect”. Moreover, the “published inhibitory concentrations IC50 or Ki, MRP5” value on MRP5 is given as “no”. Besides, the “inhibition of 17β-glucuronosyl-estradiol export by MRP7” value on MRP7 (at 30 μM) is 42%. The “inhibition … (words)” value in the data set on hyaluronan transport is recorded as “did not inhibit”.

As to `N=C(N)NC(=O)c1nc(Cl)c(N)nc1N` [amyloride], in data set [1], the “protection from proteoglycan loss, safranin O histology” value is reported as “only inhibitory at high concentrations”.

Regarding `C/C=C/C[C@@H](C)C(=O)[C@H]1C(=O)N[C@@H](C(C)C)C(=O)N(C)CC(=O)N(C)[C@@H](CC(C)C)C(=O)N[C@@H](C(C)C)C(=O)N(C)[C@@H](CC(C)C)C(=O)N[C@@H](C)C(=O)N[C@H](C)C(=O)N(C)[C@@H](CC(C)C)C(=O)N(C)[C@@H](CC(C)C)C(=O)N(C)[C@@H](C(C)C)C(=O)N1C` [Valspodar, cyclosporin D, 6-[(2S, 4R, 6E)-4-methyl-2 (methylamino)-3-oxo-6-octenoic acid]-(9CI)], the IC50 in the data set on human skin fibroblasts was 45 µM; in the data set with human fibroblasts [3] (Homo sapiens) it was 15 µM; in the data set on hyaluronan transport (Homo sapiens, Fibroblast, read-out: IC50 for hyaluronan transport (export)), approximately 15 µM.

For orientation: Ki means the equilibrium dissociation constant of an inhibitor or competing ligand from its target. As for `COc1cc2c(cc1OC)-c1c/c(=N\c3c(C)cc(C)cc3C)n(C)c(=O)n1CC2` [Trequinsin], the IC50 was 100 µM with human skin fibroblasts, 6 µM in the data set on human fibroblasts [3] (setting [4]), 60 µM in the data set with hyaluronan synthase and approximately 10 µM on MRP4. Further, the Ki at MRP5 (substrate cAMP, read-out: Ki, MRP5 mediated transport of cAMP) was 0.38 µM; at MRP5 (substrate cGMP, read-out: Ki, MRP5 mediated transport of cGMP), 0.24 µM. Further, at MRP7 (at 100 μM), the “inhibition of export of 17β-glucuronosyl-estradiol by MRP7” value was 44%. Also, in the data set with hyaluronan transport, the “inhibition … (words)” value was “good inhibitor”.
